Source: patent US11866457B2, “Clearing agent” (SAVID THERAPEUTICS INC., priority 2016, dated 2024)

Key:
[1] = tested on: [^125I]ST03-Cupid; assay: In vivo test of clearing agent: change in blood radioactivity concentration of [^125I]ST03-Cupid in mice; settings: mouse blood
Experimental: In order to examine the efficacy of Compound 14 (Zephyr1), ^125I-labeled ST03-Cupid ([^125I]ST03-Cupid) was administered to male mice via single intravenous administration, and the blood was then collected over time, so that a change in the blood radioactivity concentration caused by administration of Compound 14 was measured. Specifically, four experimental groups were prepared. In a first group, Compound 14 was administered to the mice via single intravenous administration, 6 hours after administration of [^125I]ST03-Cupid. A second group was defined as a control group for the first group, and a normal saline was administered to the mice, instead of Compound 14. In a third group, Compound 14 was administered to the mice via single intravenous administration, 24 hours after administration of [^125I]ST03-Cupid. A fourth group was defined as a control group for the third group, and a normal saline was administered to the mice, instead of Compound 14.
Specifically, with regard to administration of [^125I]ST03-Cupid to the mice, 100 μL of [^125I]ST03-Cupid was administered in a concentration of 50 kBq/100 μL to the mice via single intravenous administration ([…]/50 kBq/100 μL injection). Thereafter, 6 hours or 24 hours after administration of [^125I]ST03-Cupid, Compound 14 was administered to the mice in an amount of 2 times the number of moles of the administered ST03-Cupid ([…]/100 μL injection), or 100 μL of a normal saline was administered to the mice. It is to be noted that the experiments were carried out using the mice groups (n=4 to 6 in each group).
The blood was collected from the orbital vein of the mice over time. When Compound 14 was administered to the mice 6 hours after administration of [^125I]ST03-Cupid, blood collection was carried out with the following time intervals: first blood collection—10 minutes after administration of [^125I]ST03-Cupid, second blood collection—6 hours after administration of [^125]ST03-Cupid, third blood collection—10 minutes after administration of Saline or Compound 14, fourth blood collection—1 hour after administration of Saline or Compound 14, fifth blood collection—3 hours after administration of Saline or Compound 14, sixth blood collection—18 hours after administration of Saline or Compound 14, and seventh blood collection—24 hours after administration of Saline or Compound 14. Likewise, when Compound 14 was administered to the mice 24 hours after administration of [^125I]ST03-Cupid, blood collection was carried out with the following time intervals: first blood collection—10 minutes after administration of [^125]ST03-Cupid, second blood collection—24 hours after administration of [^125I]ST03-Cupid, third blood collection—10 minutes after administration of Saline or Compound 14, fourth blood collection—1 hour after administration of Saline or Compound 14, fifth blood collection—3 hours after administration of Saline or Compound 14, sixth blood collection—6 hours after administration of Saline or Compound 14, and seventh blood collection—24 hours after administration of Saline or Compound 14. The collected blood (40 to 50 μL) was measured using a gamma counter. The counting rate (dmp) measured with the gamma counter was divided by the amount of blood collected (g) to calculate a counting rate (dpm/g of blood) per unit weight, and the results were shown in a graph. Likewise, the counting rate (dmp) measured with the gamma counter was divided by the counting rate of [^125I]ST03-Cupid before administration, so as to calculate the remaining percentage (% ID/g of blood) in the dose after the administration. The results were shown in a graph. The measurement results are shown in Tables 1 and 2 and FIGS. 1 and 2.

[2] = target: T1, Cupid (Streptomyces avidinii, UniProt P22629, E125D/E140N/N47D/N73G/R108K/R127K/S51D/S69N/Y107S/Y46S); assay: Affinity to Cupid, SPR kinetics analysis (Biacore T200, Single Cycle Kinetics, CEA-Cupid immobilized); assay type: binding
T1 construct: fused on or other part: Anti-CEACAM5 scFv antibody ST03 fused to Cupid as the molecular probe (ST03-Cupid = anti-CEA-Cupid = 'CEA-Cupid'); 6xHis tag at the C-terminus
T1 sequence (P22629 whole entry E125D/E140N/N47D/N73G/R108K/R127K/S51D/S69N/Y107S/Y46S, looked up, the tested form may be a part): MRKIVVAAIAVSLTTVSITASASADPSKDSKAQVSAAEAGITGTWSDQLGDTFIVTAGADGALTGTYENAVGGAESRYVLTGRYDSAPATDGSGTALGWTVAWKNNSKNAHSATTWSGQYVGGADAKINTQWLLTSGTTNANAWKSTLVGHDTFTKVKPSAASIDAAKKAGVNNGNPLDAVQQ
Experimental: (§1) In order to examine the affinity of Zephyr1 and Zephyr2 to Cupid, kinetics analysis was carried out using SPR (Biacore T200). Specifically, using Amin Coupling Kit (GE Healthcare), CEA-Cupid serving as a ligand was immobilized on Sensor Chip CM5 (GE Healthcare), targeting 5000RU. Thereafter, using 5 two-fold serial dilutions (from 10 nM) of Zephyr1 or Zephyr2 serving as an analyte, kinetics analysis was carried out according to a Single Cycle Kinetics method. Thereafter, using Biacore T200 Evaluation Software, version 2.0 (GE Healthcare), the obtained data were fitted at a Bivalent Analyte mode, and kinetic parameters were calculated. As a result, Zephyr1: ka=3.792E+4, kd=4.42E−6 (FIG. 3A); and Zephyr2: ka=1.578E+7, kd=0.09339 (FIG. 3B).

[3] = target: T2, Cupid (Streptomyces avidinii, UniProt P22629, Y46S/N47D/S51D/S69N/N73G/Y107S/R108K/E125D/R127K/E140N); assay: as above; assay type: binding; settings: for ka / kd: Bivalent Analyte fit
T2 construct: fused on or other part: Anti-CEACAM5 scFv antibody ST03 fused to Cupid as the molecular probe (ST03-Cupid = anti-CEA-Cupid = 'CEA-Cupid'); 6xHis tag at the C-terminus
T2 sequence (P22629 whole entry Y46S/N47D/S51D/S69N/N73G/Y107S/R108K/E125D/R127K/E140N, looked up, the tested form may be a part): as the sequence (P22629 whole entry E125D/E140N/N47D/N73G/R108K/R127K/S51D/S69N/Y107S/Y46S, looked up, the tested form may be a part) above
Experimental: as §1

[4] = tested on: CEA-Cupid; assay: Clearance of Cupid by Zephyr2 in vivo, xenograft mouse models, blood radioactivity of Psyche-B-DOTA(^111In); settings: Zephyr2 20 hours after CEA-Cupid; Psyche-B-DOTA(111In) two hours later; blood collected 4 hours after labeling substance
Experimental: A 100 mM acetate buffer was added to ^111InCl3 solution 37 MBq (approx. […]) in the same volume as the ^111InCl3 solution, and the pH of the mixed solution was then adjusted to pH 4 to 5. Psyche-B-DOTA was added to the mixed solution at a molar ratio of 1000 times (10 nmol), such that the concentration of DMSO became 0.2% or more. The thus obtained mixture was heated at 80° C. for 15 minutes or more. Thereafter, the reaction mixture was analyzed according to HPLC, and the radiochemical purity was confirmed. The mixture was diluted with a 10 mM acetate buffer to a concentration of 1 nmol/mL, and the obtained solution was used as an administration solution.
Whether or not Cupid existing in the blood of a living body is cleared by Zephyr2 was examined by performing an experiment using xenograft mouse models. The experiment was carried out using three mice from a Zephyr2 administration group and three mice from a non-administration group (control group). Specifically, […] CEA-Cupid was administered to the xenograft mouse models, and 20 hours after the administration of CEA-Cupid, 100 μmol Zephyr2 was administered (the control group was untreated). […] Subsequently, 4 hours after the administration of the labeling substance, the blood was collected, and the amount of radioactivity therein was then measured using a gamma counter. […]

[5] = CA given 6 hr after [125I]ST03-Cupid, time 0.17 hr (before CA)
[6] = CA given 6 hr after [125I]ST03-Cupid, time 5.92 hr (before CA)
[7] = CA given 6 hr after [125I]ST03-Cupid, time 6.17 hr
[8] = CA given 6 hr after [125I]ST03-Cupid, time 7 hr
[9] = CA given 6 hr after [125I]ST03-Cupid, time 9 hr
[10] = CA given 6 hr after [125I]ST03-Cupid, time 24 hr
[11] = CA given 6 hr after [125I]ST03-Cupid, time 30 hr
[12] = CA given 24 hr after [125I]ST03-Cupid, time 0.17 hr (before CA)
[13] = CA given 24 hr after [125I]ST03-Cupid, time 23.92 hr (before CA)
[14] = CA given 24 hr after [125I]ST03-Cupid, time 24.17 hr
[15] = CA given 24 hr after [125I]ST03-Cupid, time 25 hr
[16] = CA given 24 hr after [125I]ST03-Cupid, time 27 hr
[17] = CA given 24 hr after [125I]ST03-Cupid, time 30 hr
[18] = CA given 24 hr after [125I]ST03-Cupid, time 48 hr

How did the “% Injected Dose/g of blood” value [1, 5] turn out when `CC(=O)NC1C(SCCC(=O)NCCOCCOCCNC(=O)CCC(CCC(=O)NCCOCCOCCNC(=O)CCSC2OC(CO)C(O)C(O)C2NC(C)=O)(CCC(=O)NCCOCCOCCNC(=O)CCSC2OC(CO)C(O)C(O)C2NC(C)=O)NC(=O)OCCOCCOCCn2cc(COCCNC(=O)c3cc(NC(=O)CCCCCNC(=O)CCCC[C@@H]4SC[C@@H]5NC(=N)N[C@@H]54)cc(NC(=O)CCCCCNC(=O)CCCC[C@@H]4SC[C@@H]5NC(=N)N[C@@H]54)c3)nn2)OC(CO)C(O)C1O` (stereo partly drawn) [Compound 14] was run?
Its value is 31.7 ± 3.6 % Injected Dose/g of blood.

What about the Radioactivity concentration [1, 5] of the same compound?
The Radioactivity concentration was 599504 ± 68046 dpm/g.

And the “% Injected Dose/g of blood” value [1, 6]?
The value was 16.6 ± 2.2 % Injected Dose/g of blood.

What about the Radioactivity concentration [1, 6] of the same compound?
Its Radioactivity concentration is 312854 ± 42382 dpm/g.

What about the “% Injected Dose/g of blood” value [1, 7] of the same compound?
The value was 6.2 ± 1.8 % Injected Dose/g of blood.

What about the Radioactivity concentration [1, 7] of the same compound?
The Radioactivity concentration was 117840 ± 34798 dpm/g.

And the “% Injected Dose/g of blood” value [1, 8]?
Its value is 4.8 ± 1.6 % Injected Dose/g of blood.

And the Radioactivity concentration [1, 8]?
Its Radioactivity concentration is 90787 ± 29628 dpm/g.

What about the “% Injected Dose/g of blood” value [1, 9] of the same compound?
The value was 4.4 ± 1.6 % Injected Dose/g of blood.

What about the Radioactivity concentration [1, 9] of the same compound?
Its Radioactivity concentration is 83236 ± 29606 dpm/g.

What about the “% Injected Dose/g of blood” value [1, 10] of the same compound?
Its value is 2.4 ± 0.8 % Injected Dose/g of blood.

And the Radioactivity concentration [1, 10]?
The Radioactivity concentration was 46178 ± 15340 dpm/g.

What about the “% Injected Dose/g of blood” value [1, 11] of the same compound?
Its value is 2.0 ± 0.7 % Injected Dose/g of blood.

And the Radioactivity concentration [1, 11]?
The Radioactivity concentration was 37023 ± 13443 dpm/g.

What about the “% Injected Dose/g of blood” value [1, 12] of the same compound?
Its value is 33.8 ± 2.5 % Injected Dose/g of blood.

What about the Radioactivity concentration [1, 12] of the same compound?
The Radioactivity concentration was 638296 ± 48098 dpm/g.

And the “% Injected Dose/g of blood” value [1, 13]?
The value was 6.2 ± 0.9 % Injected Dose/g of blood.

What about the Radioactivity concentration [1, 13] of the same compound?
Its Radioactivity concentration is 116201 ± 17325 dpm/g.

What about the “% Injected Dose/g of blood” value [1, 14] of the same compound?
Its value is 0.4 ± 0.1 % Injected Dose/g of blood.

And the Radioactivity concentration [1, 14]?
The Radioactivity concentration was 8368 ± 1872 dpm/g.

And the “% Injected Dose/g of blood” value [1, 15]?
The value was 0.4 ± 0.1 % Injected Dose/g of blood.

And the Radioactivity concentration [1, 15]?
Its Radioactivity concentration is 7381 ± 1798 dpm/g.

And the “% Injected Dose/g of blood” value [1, 16]?
The value was 0.6 ± 0.1 % Injected Dose/g of blood.

And the Radioactivity concentration [1, 16]?
Its Radioactivity concentration is 10748 ± 2533 dpm/g.

What about the “% Injected Dose/g of blood” value [1, 17] of the same compound?
Its value is 0.6 ± 0.2 % Injected Dose/g of blood.

What about the Radioactivity concentration [1, 17] of the same compound?
Its Radioactivity concentration is 12088 ± 3191 dpm/g.

What about the “% Injected Dose/g of blood” value [1, 18] of the same compound?
The value was 0.5 ± 0.1 % Injected Dose/g of blood.

What about the Radioactivity concentration [1, 18] of the same compound?
The Radioactivity concentration was 9001 ± 1942 dpm/g.

What about the Kd [2] of the same compound?
The Kd was 0.117 nM.

What about the ka ([3]; SPR) of the same compound?
The ka was 3.792E+4.

What about the kd ([3]; SPR) of the same compound?
The kd was 4.42E−6.

`COC(=O)C(CCCCNC(=O)c1cc(NC(=O)NCCOCCOCCNC(=O)CCc2cn(CCOCCOCCOC(=O)NC(CCC(=O)NCCOCCOCCNC(=O)CCSC3OC(CO)C(O)C(O)C3NC(C)=O)(CCC(=O)NCCOCCOCCNC(=O)CCSC3OC(CO)C(O)C(O)C3NC(C)=O)CCC(=O)NCCOCCOCCNC(=O)CCSC3OC(CO)C(O)C(O)C3NC(C)=O)nn2)cc(C(=O)NCCCCC(NC(=O)CCCCC2SCC3NC(=N)NC32)C(=O)OC)c1)NC(=O)CCCCC1SCC2NC(=N)NC21` (stereo not drawn) [Compound 25] was tested. Which “amount of radioactivity in blood” value [4] did it give?
Its value is 4.51 % ID/g.

What about the ka ([3]; SPR) of the same compound?
The ka was 1.578E+7.

What about the kd ([3]; SPR) of the same compound?
Its kd is 0.09339.

And the Kd ([3]; SPR, printed as KD=ka/kd)?
Its Kd is 5.88 nM.

And the “affinity to Cupid reduced in comparison to that of Zephyr1” value ([3]; ratio of KD values)?
Its value is “approximately one fiftieth”.
